Experimental data: patent US9790551B2, “Use of TRPC6 mRNA levels in peripheral blood cells for early detection/diagnosis of senile dementia” (Aging Wise Biotechnology, Inc., priority 2013, dated 2017)

How the values were obtained:
[1] = tested on: TRPC6 mRNA; type: cell-based
[2] = tested on: γ-secretase; details: phase 3 clinical trial, cited from earlier work
[3] = tested on: TRPC6 mRNA; test: TRPC6 mRNA in Jurkat cells after APOE-containing culture medium; type: cell-based, human; details: after 5 hr
Procedure: (§1) The culture medium containing different APOE isoforms were added into the Jurkat cells (human T cell line from peripheral blood). The mRNA levels of TRPC6 and TRPC5 were detected after 5 hr (mean±SE, n=5).

[4] = tested on: TRPC6 mRNA; test: TRPC6 mRNA in rat neurons after APOE-containing culture medium supernatant; type: cell-based; details: rat neurons cultured in vitro for 8 days, after 2 hr
Procedure: (§2) The culture medium supernatant containing different APOE isoforms were added into rat neurons cultured in vitro for 8 days. The mRNA levels of TRPC6 and TRPC5 were detected after 2 hr (mean±SE, n=8).

[5] = tested on: TRPC5 mRNA; test: TRPC5 mRNA in rat neurons after APOE-containing culture medium supernatant; type: cell-based; details: rat neurons cultured in vitro for 8 days, after 2 hr
Procedure: as §2

[6] = tested on: TRPC5 mRNA; test: TRPC5 mRNA in Jurkat cells after APOE-containing culture medium; type: cell-based, human; details: after 5 hr
Procedure: as §1

[7] = tested on: Aβ levels in primary cultured rat cortical neurons; test: Aβ ELISA of medium, primary cultured rat cortical neurons electrotransfected with siRNA; type: cell-based; details: Table 6, 7 days after electrotransfection, control siRNA = 1
Procedure: (§3) Upon collecting the culture medium of the cells, Aβ40 and Aβ42 levels were quantified with sandwich ELISA kit, respectively (purchased from Invitrogen). The forebrain of the mouse was dissected and separated, and then homogenized with GuHCL. After that, total Aβ was determined by ELISA. For determining TBST(Tris-Buffered Saline and 1% TritonX100, 1% SDS, 1% DOC) soluble and insoluble Aβ, upon TBST homogenation and centrifugation of the forebrain of the mouse, the supernatant was determined for TBST soluble Aβ by ELISA, and the precipitate was determined for TBST insoluble Aβ by ELISA upon another GuHCL homogenate.
Fetal rat was collected on the 17th day of SD rat pregnancy. Cortical neurons of the rat brains were separated, obtained, and electrotransfected by Nucleofector Device (Amaxa) with TRPC6 siRNA1 as set forth by SEQ ID NO.:12 (sense strand) and SEQ ID NO.:13 (anti-sense strand), TRPC6 siRNA2 as set forth by SEQ ID NO.:18 ([…], sense strand) and SEQ ID NO.:19 ([…], anti-sense strand), control siRNAs as set forth by SEQ ID NO.:14 (sense strand) and SEQ ID NO.:15 (anti-sense strand), and TRPC5 siRNA as set forth by SEQ ID NO.:20 ([…], sense strand) and SEQ ID NO.:21 ([…], anti-sense strand). 7 days after electrotransfection, Aβ levels in the medium were examined by ELISA.

[8] = tested on: Aβ levels in APP/PS1 mice; test: Brain Aβ levels in APP/PS1 mice after intraperitoneal injection of peptide; type: in vivo; details: intraperitoneally injected, brain tissue 3 hours later
Procedure: 6. Construction of APP/PS1 AD Mouse Models • a) APP/PS1 mice (with B6C3 background) were purchased from Jackson laboratory (#004462). • b) Construction of TRPC6 transgenic mouse
as §3
TAT or TAT-TM2 was intraperitoneally injected into APP/PS1 mice, and brain tissue samples were prepared 3 hours later and the Aβ levels were determined: general method 8 (n=8)

[9] = tested on: Aβ levels in HEK293APP stable cells; test: Aβ ELISA, HEK293APP stable cells treated with TAT fusion peptides; type: cell-based
Procedure: as §3
In this Example, the second transmembrane domain (487-507aa, TM2) was selected to fuse with cell penetrating peptide TAT and the fusion peptide TAT-TM2 and the mutant thereof TAT-TM2mut were obtained. Their effects on Aβ levels were examined in HEK293APP stable cells.
6.1.2 The Effect of Different Doses of Fusion Protein TAT-TM2 on Aβ Levels in HEK293APP Stable Cells were Determined.
To search for shorter fragments which could inhibit Aβ levels, TM2 was divided into N- and C-terminals and fused with TAT respectively. The effects of TAT-TM2-N, TAT-TM2-C and TAT-TM2-C mutant on Aβ levels in HEK293APP cells was examined.

[10] = tested on: γ-secretase cleavage of C99; test: Aβ ELISA, C0S7C99 cells treated with peptide; type: cell-based; details: Table 11; C0S7-C99 stable cells, 5 um peptide for 12 h; TAT = 1
Procedure: (§4) C99 is the C-terminal 99 amino acids of APP and the direct substrate of γ-secretase. C0S7C99 cells were passaged in 12-well plate till the density approached 100%. Each well was treated with 5 um peptide for 12 h and the Aβ levels in the culture medium was determined with ELISA.

[11] = tested on: γ-secretase cleavage of C99; test: C99-GVP/UAS luciferase reporter system with peptide; type: cell-based; details: Table 11; luciferase activity; TAT = 1
Procedure: HEK293APP were transfected with C99-GVP/UASLuciferase, CTRL or TRPC6 plasmids, and were lysed 24 hours later. The luciferase activities were determined using the Luciferase assay system (purchased from Promega). β-gal was co-transfected to normalize the transfection efficiency.
as §4

[12] = tested on: Aβ levels in primary cultured cortical neurons; test: Aβ levels in primary cultured cortical neurons treated with TAT-TM2; type: cell-based
Procedure: as §3
6.1.3 The Effect of the Fusion Peptide TAT-TM2 on Aβ Levels in Primary Cultured Cortical Neurons was Determined and the Results were Shown in FIG. 9c: […]

[13] = tested on: γ-secretase cleavage of Notch; test: NICD immunoblotting, Notch-transfected cells treated with peptide; type: cell-based; details: 5 um peptide for 12 hr
Procedure: Cells were passaged in 12-well plate till the density approached 80%, Each well was transfected with 1 ug Notch plasmid using Lipofectamine 2000. 24 hr later, cells were treated with 5 um peptide for 12 hr. The Notch protein expression was determined by immunoblotting. Wherein, NICD (notch intracellular domain) was the intracellular fragment produced by γ-secretase cleavage of NotchΔE-myc, reflecting the level of γ-secretase cleavage of Notch.

[14] = Table 5, HEK293APP stable cells, TAT control line, concentration not given
[15] = Table 8, HEK293APP stable cells, TAT = 1
[16] = Table 9, TAT-TM2 variants, HEK293APP cells, TAT = 1
[17] = Table 5, HEK293APP stable cells, 2 uM, TAT = 1
[18] = Table 5, HEK293APP stable cells, 5 uM, TAT = 1
[19] = Table 5, HEK293APP stable cells, 10 uM, TAT = 1

## [Cl-].[Cl-].[Co+2] [CoCl2]
[1]
  TRPC6 expression (mRNA): could upregulate TRPC6 expression

## CC(C)[C@H](O)C(=O)N[C@@H](C)C(=O)N[C@@H]1C(=O)N(C)CCc2ccccc21 [Semagacestat]
[2]; AD patients
  adverse gastrointestinal reaction: increased
  risk of skin cancer: increased
[2]
  cognitive function of the AD patients: declined

## APOE4: culture medium supernatant containing APOE4 isoform
[3]
  TRPC6 mRNA levels: could not affect TRPC6 mRNA levels
[4]
  TRPC6 mRNA levels: could not affect the TRPC6 mRNA levels
[5]
  TRPC5 mRNA levels: could not affect the TRPC5 mRNA levels
[6]
  TRPC5 mRNA levels: could not affect TRPC5 mRNA levels

## Control siRNA: control siRNAs, SEQ ID NO.:14 (sense strand) and SEQ ID NO.:15 (anti-sense strand) (sense GCACACCGAAGGAUAUUCUTT; antisense AGAAUAUCCUUCGGUGUGCTT; chemistry not given here)
[7]
  Aβ40: 1
  Aβ42: 1

## TAT (GRKKRRQRRRC; fusion peptide) [reference compound]
[8]
  Aβ40: 169.70 ± 61.78 pg/mg
  Aβ42: 492.60 ± 157.70 pg/mg
[9]; [14]
  Aβ40: 1
  Aβ42: 1
[9]; [15]
  Aβ40: 1
  Aβ42: 1
[9]; [16]
  Aβ40: 1
  Aβ42: 1
[10]
  Aβ40: 1
  Aβ42: 1
[11]
  C99-GVP/UAS luciferase reporter system: 1

## TAT-TM2: fusion peptide of TRPC6 second transmembrane domain (487-507aa) and TAT, SEQ ID NO.:17, TSCFSWMEMLIISWVIGMIWAGRKKRRQRRRC (fusion peptide)
[8]
  Aβ40: 91.12 ± 43.56 pg/mg
  Aβ42: 277.40 ± 124.10 pg/mg
[12]
  Aβ40, of the control group: 83%
  Aβ42, of the control group: 68%
[9]; [17]
  Aβ40: 0.6825 ± 0.0498
  Aβ42: 0.6244 ± 0.03189
[9]; [18]
  Aβ40: 0.4863 ± 0.05919
  Aβ42: 0.3255 ± 0.02046
[9]; [19]
  Aβ40: 0.2481 ± 0.0763
  Aβ42: 0.2214 ± 0.01597
[9]; [15]
  Aβ40: 0.39 ± 0.03
  Aβ42: 0.40 ± 0.06
[10]
  Aβ40: 0.39 ± 0.11
  Aβ42: 0.58 ± 0.04
[13]
  NICD level (γ-secretase cleavage of NotchΔE-myc): did not affect NICD level
[11]
  C99-GVP/UAS luciferase reporter system: 0.82 ± 0.02

## TRPC5 siRNA: TRPC5 siRNA, SEQ ID NO.:20 AACGCCUUCUCCACGCUCUUU and SEQ ID NO.:21 AAAGAGCGUGGAGAAGGCGUU (listed as RNA, chemistry not given here)
[7]
  Aβ40: 0.96 ± 0.09
  Aβ42: 1.03 ± 0.02

## TRPC6 siRNA-1: TRPC6 siRNA, SEQ ID NO.:12 (sense strand) and SEQ ID NO.:13 (anti-sense strand) (sense CGGUGGUCAUCAACUACAATT; antisense UUGUAGUUGAUGACCACCGTT; chemistry not given here)
[7]
  Aβ40: 1.49 ± 0.16
  Aβ42: 1.89 ± 0.21

## TRPC6 siRNA-2: TRPC6 siRNA, SEQ ID NO.:18 GCUUGACUUUGGAAUGUUATT and SEQ ID NO.:19 UAACAUUCCAAAGUCAAGCTT (chemistry not given here)
[7]
  Aβ40: 1.33 ± 0.13
  Aβ42: 1.63 ± 0.17
